# Source: US7511041B2, “Fused azole-pyrimidine derivatives” (Bayer Pharmaceuticals Corporation, priority 2002, dated 2009)
# Where two headings read alike, the source gives them in different places.
# Legend:
# [1] = biological target: T1, Recombinant human PI3Kγ (full length human PI3K p110γ) (Homo sapiens, UniProt P48736); assay: Kinase assay of PI3Kγ (solid-phase lipid kinase assay); format: biochemical; conditions: in vitro PI3K-γ inhibitory activity, read-out: in vitro PI3K-gamma
# T1 construct: full length human PI3K p110γ fused with a His6-tag at the C-terminus; His6 (C); purchased ALEXIS BIOCHEMICALS #201-055-C010; host or cells: S. frugiperda 9 insect cells
# T1 sequence (P48736 whole entry, the tested form may be a part): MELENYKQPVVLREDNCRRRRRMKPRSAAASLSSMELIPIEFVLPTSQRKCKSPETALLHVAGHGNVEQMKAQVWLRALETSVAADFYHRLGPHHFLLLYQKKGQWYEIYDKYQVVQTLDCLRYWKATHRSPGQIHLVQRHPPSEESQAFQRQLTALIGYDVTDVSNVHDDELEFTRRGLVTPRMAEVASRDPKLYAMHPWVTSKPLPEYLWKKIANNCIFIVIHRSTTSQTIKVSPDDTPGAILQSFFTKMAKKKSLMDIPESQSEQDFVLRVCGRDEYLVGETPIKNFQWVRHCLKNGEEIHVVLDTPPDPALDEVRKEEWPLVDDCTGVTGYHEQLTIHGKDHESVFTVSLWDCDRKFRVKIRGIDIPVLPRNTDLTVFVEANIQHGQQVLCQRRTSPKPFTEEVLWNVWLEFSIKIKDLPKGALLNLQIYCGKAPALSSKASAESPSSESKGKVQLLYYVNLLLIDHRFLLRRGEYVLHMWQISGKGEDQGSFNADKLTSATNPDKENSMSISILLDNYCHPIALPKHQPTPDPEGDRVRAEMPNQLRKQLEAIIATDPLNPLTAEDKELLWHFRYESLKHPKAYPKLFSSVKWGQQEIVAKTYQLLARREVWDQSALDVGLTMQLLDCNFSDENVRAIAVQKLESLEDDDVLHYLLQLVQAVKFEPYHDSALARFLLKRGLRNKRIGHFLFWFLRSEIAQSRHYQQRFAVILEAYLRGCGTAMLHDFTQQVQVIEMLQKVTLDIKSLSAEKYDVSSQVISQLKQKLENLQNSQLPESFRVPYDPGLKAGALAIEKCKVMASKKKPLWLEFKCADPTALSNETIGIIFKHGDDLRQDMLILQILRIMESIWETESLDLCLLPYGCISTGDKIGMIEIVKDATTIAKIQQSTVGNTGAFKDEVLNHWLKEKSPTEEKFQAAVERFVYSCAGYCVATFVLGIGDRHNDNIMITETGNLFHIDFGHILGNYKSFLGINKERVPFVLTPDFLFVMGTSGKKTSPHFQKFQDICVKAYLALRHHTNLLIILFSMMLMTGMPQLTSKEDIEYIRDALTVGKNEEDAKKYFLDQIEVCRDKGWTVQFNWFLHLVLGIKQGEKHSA
SMILES,melting point,IC50 ([1]; class symbols) [nM],IC50 ([1]; class symbols A-D) [nM]
Cl.O=C(NC1=Nc2cc(OCCn3cccc3)ccc2C2=NCCN12)c1cccnc1 [Example 2-196],239 °C,100 to 500,
O=C(NC1=Nc2cc(OCCO)ccc2C2=NCCN12)c1cccnc1 [Example 2-197],210 to 215 °C (dec.),100 to 500,
O=C(NC1=Nc2cc(OCCCO)ccc2C2=NCCN12)c1cccnc1 [Example 2-199],127 °C,< 100,
Cl.O=C(NC1=Nc2cc(OCCCO)ccc2C2=NCCN12)c1cccnc1 [Example 2-200],243 °C (dec.),100 to 500,
O=C(NC1=Nc2cc(OCCOCCO)ccc2C2=NCCN12)c1cccnc1 [Example 2-201],181 °C,100 to 500,
Cl.O=C(O)COc1ccc2c(c1)N=C(NC(=O)c1cccnc1)N1CCN=C21 [Example 2-203],231 °C (dec.),100 to 500,
Cl.O=C1NCC(COc2ccc3c(c2)N=C(NC(=O)c2cccnc2)N2CCN=C32)O1 (stereo not drawn) [Example 2-204],265 to 269 °C (dec.),,100 to 500
Cl.O=C(NC1=Nc2cc(OCCN3CCOCC3)ccc2C2=NCCN12)c1cccnc1 [Example 2-205],243 to 247 °C (dec.),,100 to 500
NC(=O)COc1ccc2c(c1)N=C(NC(=O)c1cccnc1)N1CCN=C21 [Example 2-206],296 °C,,100 to 500
O=C(NC1=Nc2cc(OCC(=O)N3CCOCC3)ccc2C2=NCCN12)c1cccnc1 [Example 2-207],232 to 236 °C (dec.),,100 to 500
Cl.O=C(NC1=Nc2cc(OCCCN3C(=O)c4ccccc4C3=O)ccc2C2=NCCN12)c1cccnc1 [Example 2-209],247 °C,,< 100
O=C(NC1=Nc2ccc(O)cc2C2=NCCN12)c1cccnc1 [Example 2-210],> 300 °C,,100 to 500
Cl.O=C(NC1=Nc2ccc(O)cc2C2=NCCN12)c1cccnc1 [Example 2-211],> 300 °C,,< 100
O=C(NC1=Nc2ccc(O)cc2C2=NCCN12)c1ccc2[nH]cnc2c1 [Example 2-212],296 °C (dec.),,100 to 500
N#CCOc1ccc2c(c1)C1=NCCN1C(NC(=O)c1cccnc1)=N2 [Example 2-213],209 °C,,100 to 500
O=C(NC1=Nc2ccccc2C2=NCCN12)c1ccccc1 [Example 2-214],201 to 203 °C (dec.),,500 to 2000
O=C(NC1=Nc2ccccc2C2=NCCN12)c1ccccc1.O=C(O)C(F)(F)F [Example 2-215],238 to 242 °C,,100 to 500
Cc1cccc(C(=O)NC2=Nc3ccccc3C3=NCCN23)c1 [Example 2-216],201 to 203 °C,,> 2000
Cc1cccc(C(=O)NC2=Nc3ccccc3C3=NCCN23)c1.O=C(O)C(F)(F)F [Example 2-217],239 to 241 °C,,100 to 500
Cc1ccc(C(=O)NC2=Nc3ccccc3C3=NCCN23)cc1 [Example 2-218],185 to 186 °C,,> 2000
Cc1cc(C)cc(C(=O)NC2=Nc3ccccc3C3=NCCN23)c1 [Example 2-219],246 to 248 °C,,> 2000

SMILES,melting point,IC50 ([1]; class symbols) [nM],IC50 ([1]; class symbols A-D) [nM]
COc1c(C)cc(C(=O)NC2=Nc3ccccc3C3=NCCN23)cc1C [Example 2-220],216 to 218 °C,,> 2000
Cc1cc(C(=O)NC2=Nc3ccccc3C3=NCCN23)cc(C)c1[N+](=O)[O-] [Example 2-222],277 °C (dec.),,> 2000
O=C(NC1=Nc2ccccc2C2=NCCN12)c1ccccc1F [Example 2-224],202 to 204 °C,,500 to 2000
O=C(NC1=Nc2ccccc2C2=NCCN12)c1ccc(F)cc1 [Example 2-225],210 to 212 °C,,> 2000
O=C(NC1=Nc2ccccc2C2=NCCN12)c1ccccc1Cl.O=C(O)C(F)(F)F [Example 2-226],221 to 224 °C,,> 2000
O=C(NC1=Nc2ccccc2C2=NCCN12)c1cccc(Cl)c1 [Example 2-227],196 to 197 °C,,> 2000
O=C(NC1=Nc2ccccc2C2=NCCN12)c1cccc(Cl)c1.O=C(O)C(F)(F)F [Example 2-228],233 to 235 °C,,500 to 2000
O=C(NC1=Nc2ccccc2C2=NCCN12)c1ccc(Cl)cc1 [Example 2-229],226 to 228 °C,,> 2000
O=C(NC1=Nc2ccccc2C2=NCCN12)c1cc(Cl)cc(Cl)c1 [Example 2-231],268 to 269 °C,,> 2000
COc1ccccc1C(=O)NC1=Nc2ccccc2C2=NCCN12 [Example 2-232],185 to 187 °C,,> 2000
COc1cccc(C(=O)NC2=Nc3ccccc3C3=NCCN23)c1 [Example 2-233],202 to 204 °C,,> 2000
COc1cccc(C(=O)NC2=Nc3ccccc3C3=NCCN23)c1.O=C(O)C(F)(F)F [Example 2-234],209 to 211 °C,,500 to 2000
COc1ccc(C(=O)NC2=Nc3ccccc3C3=NCCN23)cc1 [Example 2-235],300 °C (dec.),,> 2000
CC(C)(C)Oc1ccc(C(=O)NC2=Nc3ccccc3C3=NCCN23)cc1 [Example 2-236],> 410 °C,,> 2000
COc1ccc(C(=O)NC2=Nc3ccccc3C3=NCCN23)c(OC)c1.Cl [Example 2-237],259 °C (dec.),,> 2000
COc1ccc(C(=O)NC2=Nc3ccccc3C3=NCCN23)cc1OC.Cl [Example 2-238],274 °C (dec.),,100 to 500
COc1cc(OC)cc(C(=O)NC2=Nc3ccccc3C3=NCCN23)c1 [Example 2-239],330 °C (dec.),,> 2000
COc1cc(C(=O)NC2=Nc3ccccc3C3=NCCN23)cc(OC)c1OC.Cl [Example 2-240],291 °C (dec.),,> 2000
COc1cc(C(=O)NC2=Nc3ccccc3C3=NCCN23)cc(OC)c1C [Example 2-241],248 °C (dec.),,> 2000
CSc1ccc(C(=O)NC2=Nc3ccccc3C3=NCCN23)cc1 [Example 2-243],169 to 170 °C,,> 2000
CS(=O)(=O)c1ccc(C(=O)NC2=Nc3ccccc3C3=NCCN23)cc1 [Example 2-245],278 °C (dec.),,> 2000

SMILES,melting point,IC50 ([1]; class symbols) [nM],IC50 ([1]; class symbols A-D) [nM]
NS(=O)(=O)c1ccc(C(=O)NC2=Nc3ccccc3C3=NCCN23)cc1 [Example 2-247],278 °C (dec.),,500 to 2000
NS(=O)(=O)c1ccc(C(=O)NC2=Nc3ccccc3C3=NCCN23)c(Cl)c1 [Example 2-249],240 °C (dec.),,> 2000
O=C(NC1=Nc2ccccc2C2=NCCN12)c1ccccc1[N+](=O)[O-].O=C(O)C(F)(F)F [Example 2-251],198 to 200 °C,,> 2000
O=C(NC1=Nc2ccccc2C2=NCCN12)c1cccc([N+](=O)[O-])c1 [Example 2-252],265 to 267 °C,,> 2000
O=C(NC1=Nc2ccccc2C2=NCCN12)c1ccc([N+](=O)[O-])cc1 [Example 2-254],279 to 281 °C,,> 2000
N#Cc1ccc(C(=O)NC2=Nc3ccccc3C3=NCCN23)cc1.O=C(O)C(F)(F)F [Example 2-256],248 to 250 °C,,> 2000
Nc1ccccc1C(=O)NC1=Nc2ccccc2C2=NCCN12.O=C(O)C(F)(F)F [Example 2-257],175 °C (dec.),,> 2000
CN(C)c1cccc(C(=O)NC2=Nc3ccccc3C3=NCCN23)c1 [Example 2-258],188 to 190 °C,,> 2000
CN(C)c1ccc(C(=O)NC2=Nc3ccccc3C3=NCCN23)cc1.O=C(O)C(F)(F)F [Example 2-260],240 °C (dec.),,> 2000
CN1CCN(c2ccc(C(=O)NC3=Nc4ccccc4C4=NCCN34)cc2)CC1 [Example 2-261],218 to 222 °C,,> 2000
CC(=O)Nc1cccc(C(=O)NC2=Nc3ccccc3C3=NCCN23)c1.O=C(O)C(F)(F)F [Example 2-262],253 °C (dec.),,> 2000
CN(C=O)c1ccc(C(=O)NC2=Nc3ccccc3C3=NCCN23)cc1 [Example 2-263],208 to 210 °C,,> 2000
CC(C)(C)OC(=O)Nc1cccc(C(=O)NC2=Nc3ccccc3C3=NCCN23)c1 [Example 2-265],280 °C (dec.),,> 2000
O=C(NC1=Nc2ccccc2C2=NCCN12)c1ccc(-n2cccc2)cc1 [Example 2-266],218 to 220 °C,,> 2000
O=C(NC1=Nc2ccccc2C2=NCCN12)c1ccc(-n2ccnc2)cc1 [Example 2-268],267 °C (dec.),,> 2000
O=C(NC1=Nc2ccccc2C2=NCCN12)c1ccc(-n2cccn2)cc1 [Example 2-270],209 to 211 °C,,> 2000
COC(=O)c1cccc(C(=O)NC2=Nc3ccccc3C3=NCCN23)c1 [Example 2-272],224 to 226 °C,,> 2000
COC(=O)c1ccc(C(=O)NC2=Nc3ccccc3C3=NCCN23)cc1 [Example 2-273],253 to 255 °C,,> 2000
CCOC(=O)c1cc(C(=O)NC2=Nc3ccccc3C3=NCCN23)cc(C(=O)OCC)c1 [Example 2-274],289 °C (dec.),,> 2000
O=C(NC1=Nc2ccccc2C2=NCCN12)c1ccccn1 [Example 2-276],204 to 205 °C,,500 to 2000
O=C(NC1=Nc2ccccc2C2=NCCN12)c1ccncc1 [Example 2-278],224 to 225 °C,,500 to 2000
